The source of these data is the NIST ThermoML archive (doi:10.1016/j.fluid.2016.08.015).

Numbers after ± are expanded uncertainties.

For series [1] the following is noted: Liquid; for mass density: 293.15 K, 101.33 kPa, Vibrating tube method; for vapor or sublimation pressure: 298 K, Gas chromatography.
Series [2] is described as follows: refractive index (Na D-line) (dimensionless). The conditions noted are these: 293.15 K; 101.33 kPa; Liquid; Standard Abbe refractometry.

In the case of `FC(F)(F)C(F)(F)C(F)(F)C(F)(F)C(F)(F)C(F)(F)C(F)(F)C(F)(F)C(F)(F)F` [eicosafluorononane], in series [1], the mass density turned out to be 1798 ± 1 kg/m3 and the “vapor or sublimation pressure” value is 2.57 ± 0.27 kPa. Moreover, the refractive index in series [2] came to 1.275 ± 0.001.
As for `FC(F)(F)C(F)(F)C(F)(F)C(F)(F)C(F)(F)C(F)(F)C(F)(F)F` [hexadecafluoroheptane], in series [1], the mass density was found to be 1717 ± 1 kg/m3 and the “vapor or sublimation pressure” value stood at 10.12 ± 0.79 kPa. The refractive index in series [2] amounted to 1.261 ± 0.001.

In general, mass density refers to mass per unit of volume. As a reminder, the vapor or sublimation pressure is the pressure of vapour in equilibrium with the condensed phase. For orientation: refractive index means a measure of how strongly the sample bends light.
